Patent publication US12134620B2 (ARAXES PHARMA LLC, priority 2018, dated 2024)

Target: T1, KRAS G12C 1-169, his-tagged protein, GDP-loaded (Homo sapiens, UniProt P01116, G12C)
T1 construct: KRAS G12C 1-169, his-tagged protein, GDP-loaded; His tag
Assay: Biochemical assay: covalent modification of KRAS G12C, analysed by mass spectrometry (RapidFire/TOF or Q-Exactive); also: time not given here
Type: binding
Conditions: Modification activity, modification percentage from MS peak intensities
Summary of the method: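 Covalent adduct formation was quantified by intact-protein mass spectrometry, either TOF or C4 LC-Q Exactive Plus, as percent modified versus unmodified protein after deconvolution. Compounds at 8 or 32 μM final were incubated with 0.5 or 2 μM GDP-bound KRAS G12C(1-169)-His in Hepes/NaCl/MgCl2 buffer before acid quench.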

Question: Which Binding % does the source give for `C=CC(=O)N1CC2(CCN(c3nc(OCc4ccccn4)nc(-c4c(C)ccc5cnn(C)c45)c3C#N)C2)C1` [Compound I-102, 4-(2-acryloyl-2,6-diazaspiro[3.4]octan-6-yl)-6-(1,6-dimethyl-1H-indazol-7-yl)-2-(pyridin-2-ylmethoxy)pyrimidine-5-carbonitrile] here?
Answer: ++ (++ indicates binding activity from 50 to 85%)

Question: Which Binding % does the source give for `C=CC(=O)N1CC2(CCN(c3nc(N4CC(N(C)C)C4)nc(-c4c(C)ccc5[nH]ncc45)c3C#N)C2)C1` [Compound I-4, 4-(2-acryloyl-2,6-diazaspiro[3.4]octan-6-yl)-2-(3-(dimethylamino)azeti-din-1-yl)-6-(5-methyl-1H-indazol-4-yl)pyrimidine-5-carbonitrile] here?
Answer: +++ (+++ indicates binding activity greater than 85%)

Question: Which Binding % does the source give for `C=CC(=O)N1CC2(CCN(c3nc(OC[C@@H]4CCCN4C)nc(-c4cccc5c4OC(F)(F)O5)c3C#N)C2)C1` [Compound I-17, (S)-4-(2-acryloyl-2,6-diazaspiro[3.4]octan-6-yl)-6-(2,2-difluorobenzo[d][1,3]dioxol-4-yl)-2-((1-methylpyrrolidin-2-yl)methoxy)pyrimidine-5-carbonitrile] here?
Answer: + (+ indicates binding activity greater than 0% and up to 50%)

Question: Which Binding % does the source give for `C=CC(=O)N1CC2(CCN(c3c(OCc4ccccn4)ncc(-c4c(C)ccc5cnn(C)c45)c3C#N)C2)C1` [Compound I-175, 3-(2-acryloyl-2,6-diazaspiro[3.4]octan-6-yl)-5-(1,6-dimethyl-1H-indazol-7-yl)-2-(pyridin-2-ylmethoxy)isonicoti-nonitrile] here?
Answer: ++ (++ indicates binding activity from 50 to 85%)

Question: Which Binding % does the source give for `C=CC(=O)N1CC2(CCN(c3nc(C(=O)N4CCN(C)CC4)nc(-c4c(C)ccc5[nH]ncc45)c3C#N)C2)C1` [Compound I-203, 4-(2-acryloyl-2,6-diazaspiro[3.4]octan-6-yl)-6-(5-methyl-1H-indazol-4-yl)-2-(4-methylpiperazine-1-carbonyl)pyrimidine-5-carbonitrile] here?
Answer: + (+ indicates binding activity greater than 0% and up to 50%)

Question: Which Binding % does the source give for `C=CC(=O)N1CC2(CCN(c3nc(N4CCC(F)(F)C4)nc(-c4c(C)ccc5[nH]ncc45)c3C#N)C2)C1` [Compound I-27, 4-(2-acryloyl-2,6-diazaspiro[3.4]octan-6-yl)-2-(3,3-difluoropyrrolidin-1-yl)-6-(5-methyl-1H-indazol-4-yl)pyrimidine-5-carbonitrile] here?
Answer: +++ (+++ indicates binding activity greater than 85%)

Question: Which Binding % does the source give for `C=CC(=O)N1CC2(CCN(c3nc(OC[C@@H]4CCCN4C)nc(-c4c(C)ccc5[nH]nc(N)c45)c3C#N)C2)C1` [Compound I-108, 4-(2-acryloyl-2,6-diazaspiro[3.4]octan-6-yl)-6-(3-amino-5-methyl-1H-indazol-4-yl)-2-(((S)-1-methylpyrrolidin-2-yl)methoxy)pyrimidine-5-carbonitrile] here?
Answer: ++ (++ indicates binding activity from 50 to 85%)

Question: How did the Binding % turn out when `C=CC(=O)N1CC2(CCN(c3nc(N4CC5CCC(C4)N5C)nc(-c4c(C)ccc5[nH]ncc45)c3C#N)C2)C1` [Compound I-47, 4-(2-acryloyl-2,6-diazaspiro[3.4]octan-6-yl)-6-(5-methyl-1H-indazol-4-yl)-2-(8-methyl-3,8-diazabicyclo[3.2.1]oc-tan-3-yl)pyrimidine-5-carbonitrile] was run?
Answer: +++ (+++ indicates binding activity greater than 85%)

Question: For `C=CC(=O)N1CC2(CCN(c3cncc(-c4c(C)ccc5[nH]ncc45)c3C#N)C2)C1` [Compound I-256, 3-(2-acryloyl-2,6-diazaspiro[3.4]octan-6-yl)-5-(5-methyl-1H-indazol-4-yl)isonicotinonitrile], which Binding % is on record?
Answer: +++ (+++ indicates binding activity greater than 85%)

Question: How did the Binding % turn out when `C=CC(=O)N1CC2(CCN(c3nc(OCc4ncccn4)nc(-c4c(C)ccc5[nH]ncc45)c3C#N)C2)C1` [Compound I-154, 4-(2-acryloyl-2,6-diazaspiro[3.4]octan-6-yl)-6-(5-methyl-1H-indazol-4-yl)-2-(pyrimidin-2-ylmethoxy)pyrimidine-5-carbonitrile] was run?
Answer: ++ (++ indicates binding activity from 50 to 85%)

Question: `C=CC(=O)N1CC2(CCN(c3nccc(-c4c(C)ccc5[nH]ncc45)n3)C2)C1` [Compound I-275, 1-(6-(4-(5-methyl-1H-indazol-4-yl)pyrimidin-2-yl)-2,6-diazaspiro[3.4]octan-2-yl)prop-2-en-1-one] was tested. Which Binding % did it give?
Answer: + (+ indicates binding activity greater than 0% and up to 50%)

Question: With `C=CC(=O)N1CC2(CCN(c3nc(N4CCOCC4)nc(-c4c(C)ccc5[nH]ncc45)c3OC)C2)C1` [Compound I-121, 1-(6-(5-methoxy-6-(5-methyl-1H-indazol-4-yl)-2-morpholinopyrimidin-4-yl)-2,6-diazaspiro[3.4]octan-2-yl)prop-2-en-1-one] as the compound, how does the Binding % read?
Answer: ++ (++ indicates binding activity from 50 to 85%)

Question: For `C=CC(=O)N1CC2(CCN(c3nc(OCc4ccc(N5CCOCC5)cn4)nc(-c4c(C)ccc5cnn(C)c45)c3C#N)C2)C1` [Compound I-162, 4-(2-acryloyl-2,6-diazaspiro[3.4]octan-6-yl)-6-(1,6-dimethyl-1H-indazol-7-yl)-2-((5-morpholinopyridin-2-yl)methoxy)pyrimidine-5-carbonitrile], which Binding % is on record?
Answer: ++ (++ indicates binding activity from 50 to 85%)

Question: For `C=CC(=O)N1CC2(CCN(c3nc(OC[C@@H]4CCCN4C)nc(-c4c(C)ccc5[nH]ncc45)c3C#N)C2)C1` [Compound I-2, 4-(2-acryloyl-2,6-diazaspiro[3.4]octan-6-yl)-6-(5-methyl-1H-indazol-4-yl)-2-(((S)-1-methylpyrrolidin-2-yl)methoxy)pyrimidine-5-carbonitrile], which Binding % is on record?
Answer: +++ (+++ indicates binding activity greater than 85%)

Question: `C=CC(=O)N1CC2(CCN(c3nc(OC[C@@H]4CCCN4C)nc(-c4cc(O)cc5ccccc45)c3C#N)C2)C1` [Compound I-92, (S)-4-(2-acryloyl-2,6-diazaspiro[3.4]octan-6-yl)-6-(3-hydroxynaphthalen-1-yl)-2-((1-methylpyrrolidin-2-yl)methoxy)pyrimidine-5-carbonitrile] was tested. Which Binding % did it give?
Answer: ++ (++ indicates binding activity from 50 to 85%)

Question: Which Binding % does the source give for `C=CC(=O)N1CC2(CCN(c3ncnc(-c4c(C)ccc5[nH]ncc45)c3CC#N)C2)C1` [Compound I-241, 2-(4-(2-acryloyl-2,6-diazaspiro[3.4]octan-6-yl)-6-(5-methyl-1H-indazol-4-yl)pyrimidin-5-yl)acetonitrile] here?
Answer: + (+ indicates binding activity greater than 0% and up to 50%)

Question: With `C=CC(=O)N1CC2(CCN(c3nc(OC[C@@H]4COCCN4C)nc(-c4c(C)ccc5[nH]ncc45)c3C#N)C2)C1` [Compound I-117, 4-(2-acryloyl-2,6-diazaspiro[3.4]octan-6-yl)-6-(5-methyl-1H-indazol-4-yl)-2-(((S)-4-methylmorpholin-3-yl)methoxy)pyrimidine-5-carbonitrile] as the compound, how does the Binding % read?
Answer: ++ (++ indicates binding activity from 50 to 85%)

Question: For `C=CC(=O)N1CC2(CCN(c3nc(OC[C@@H]4CCCN4C)nc(Nc4cccc(C(N)=O)c4)c3C#N)C2)C1` [Compound I-44, (S)-3-((6-(2-acryloyl-2,6-diazaspiro[3.4]octan-6-yl)-5-cyano-2-((1-methylpyrrolidin-2-yl)methoxy)pyrimidin-4-yl)amino)benzamide], which Binding % is on record?
Answer: + (+ indicates binding activity greater than 0% and up to 50%)

Question: With `C=CC(=O)N1CC2(CCN(c3nc(OCCCN(C)C)nc(-c4c(C)ccc5[nH]ncc45)c3C#N)CC2)C1` [Compound I-86, 4-(2-acryloyl-2,7-diazaspiro[3.5]nonan-7-yl)-2-(3-(dimethylamino)pro-poxy)-6-(5-methyl-1H-indazol-4-yl)pyrimidine-5-carbonitrile] as the compound, how does the Binding % read?
Answer: ++ (++ indicates binding activity from 50 to 85%)

Question: Which Binding % does the source give for `C=CC(=O)N1CC2(CCN(c3cnc(Cc4ccccc4)c(-c4c(C)ccc5[nH]ncc45)c3C#N)C2)C1` [Compound I-223, 5-(2-acryloyl-2,6-diazaspiro[3.4]octan-6-yl)-2-benzyl-3-(5-methyl-1H-indazol-4-yl)isonicotinonitrile] here?
Answer: ++ (++ indicates binding activity from 50 to 85%)

Question: With `Cc1ccc2[nH]ncc2c1-c1nc(N2CCOCC2)nc(N2CCC3(CN(C(=O)/C=C/CN4CCC4)C3)C2)c1C#N` [Compound I-200, (E)-4-(2-(4-(azetidin-1-yl)but-2-enoyl)-2,6-diazaspiro[3.4]octan-6-yl)-6-(5-methyl-1H-indazol-4-yl)-2-morpholinopyrimidine-5-carbonitrile] as the compound, how does the Binding % read?
Answer: ++ (++ indicates binding activity from 50 to 85%)

Question: `C=CC(=O)N1CC2(CCN(c3nc(OCc4ccc(N5CCN(C)CC5)cn4)nc(-c4c(C)ccc5cnn(C)c45)c3C#N)C2)C1` [Compound I-186, 4-(2-acryloyl-2,6-diazaspiro[3.4]octan-6-yl)-6-(1,6-dimethyl-1H-indazol-7-yl)-2-((5-(4-methylpiperazin-1-yl)pyridin-2-yl)methoxy)pyrimidine-5-carbonitrile] was tested. Which Binding % did it give?
Answer: + (+ indicates binding activity greater than 0% and up to 50%)

Question: For `C=CC(=O)N1CC2(CCN(c3nc(N4CCOCC4)nc(-c4c(C)ccc5[nH]ncc45)c3C#CC3CC3)C2)C1` [Compound I-190, 1-(6-(5-(cyclopropylethynyl)-6-(5-methyl-1H-indazol-4-yl)-2-morpholinopyrimidin-4-yl)-2,6-diazaspiro[3.4]octan-2-yl)prop-2-en-1-one], which Binding % is on record?
Answer: + (+ indicates binding activity greater than 0% and up to 50%)

Question: With `C=CC(=O)N1CC2(CCN(c3nc(OCc4ccccn4)nc(-c4c(F)ccc5cnn(C)c45)c3C#N)C2)C1` [Compound I-123, 4-(2-acryloyl-2,6-diazaspiro[3.4]octan-6-yl)-6-(6-fluoro-1-methyl-1H-indazol-7-yl)-2-(pyridin-2-ylmethoxy)pyrimidine-5-carbonitrile] as the compound, how does the Binding % read?
Answer: + (+ indicates binding activity greater than 0% and up to 50%)

Question: For `C=CC(=O)N1CC2(CCN(c3ncnc(-c4cc5cn[nH]c5cc4C)c3C#N)C2)C1` [Compound I-234, 4-(2-acryloyl-2,6-diazaspiro[3.4]octan-6-yl)-6-(6-methyl-1H-indazol-5-yl)pyrimidine-5-carbonitrile], which Binding % is on record?
Answer: + (+ indicates binding activity greater than 0% and up to 50%)
